Measurements taken from US20080003438A1, “Heterocyclic siloxanes for use in biocidal coatings and materials” (Auburn University, priority 2002, published 2008).

Tests used:
S. aureus (ATCC 6538) = assay: Challenge of treated cotton swatches, modified AATCC Method 100; assay type: cell-based; details: coated chlorinated cotton swatches, contact time interval 10-30 minutes, pH 7 phosphate buffer
Experimental: (§1) Treated cotton swatches were challenged with S. aureus (ATCC 6538) and Escherichia coli (ATCC 2666) at a concentration of between 10^8 and 10^9 CFU/mL in pH 7 phosphate buffer solution using a modified version of AATCC Method 100. The swatches were quenched with 0.02 N sodium thiosulfate solution at contact times of 10, 30, 60, and 120 min. Serial dilutions of the solutions contacting the swatches were plated on nutrient agar, incubated for 48 hours at 37° C., and plate counts were made to determine the presence of viable bacteria. […] The control sample (cotton soaked in 10% bleach, rinsed, and dried) gave only a 0.4 log reduction at 30 minutes. […] The control sample (cotton soaked in 10% bleach, rinsed, and dried) gave a 0 log reduction at 120 minutes.

[1] = system: Escherichia coli (ATCC 2666); assay: as above; assay type: cell-based; details: contact time interval 60-120 minutes
Experimental: as §1

[2] = Stability test during dry storage of coated cotton samples; assay type: physicochemical
Experimental: A stability test during dry storage was also conducted on cotton samples coated with 3-triethoxysilylpropyl-5,5-dimethylhydantoin. One half of the samples were coated in a bath containing 8% of the 3-triethoxysilylpropyl-5,5-dimethylhydantoin in 50% ethanol in water solution. The other half were treated in the same manner except that KSCN was added to the treatment bath as described above. The chlorination conditions and analytical method of measuring chlorine loadings were the same as discussed above. The samples were stored in plastic bags at ambient temperature; the bags were not air-tight. The average chlorine loading for the samples treated in the presence of KSCN declined from 0.776% to 0.680% over a period of 50 days. For the samples not treated in the presence of KSCN, the decline was from 0.620% to 0.540% over the same 50 day period. It can be concluded that the coated cotton samples were fairly stable to loss of chlorine in dry storage.

[3] = Chlorine loading of coated, chlorinated surfaces by iodometric/thiosulfate titration; assay type: physicochemical; details: for average chlorine loading on the swatches: 10% CLOROX 30 min; for chlorine content: chlorinated in household washing machine; for chlorine bound to hard surface: 10% CLOROX
Experimental: Swatches of Style 400 Bleached 100% Cotton Print Cloth (Testfabrics, Inc.) were treated with 3-triethoxysilylpropyl-5,5-dimethylhydantoin, prepared as described in Example 1, in the following manner. A treatment bath was prepared containing 5.0 g of 3-triethoxysilylpropyl-5,5-dimethylhydantoin, 3.0 g of potassium thiocyanate, 50 mL of ethanol, and 50 mL of water. After 1 hour of equilibration of the bath mixture, the cotton swatches were soaked in the bath for 10 min. After partially drying in air at ambient temperature, the swatches were cured for 1 hour at 95° C. The swatches were then soaked in a 0.5% liquid detergent solution for 15 min, rinsed with tap water, and allowed to dry in air at ambient temperature. […] The swatches were stored in a vacuum desiccator until use.
The siloxane polymer described above was coated onto 100% cotton fabric. This was accomplished by soaking swatches of the material for about 2 minutes at ambient temperature in a bath containing 5 g of the polysiloxane, 70 mL of ethanol, and 40 mL of water. The swatches were cured at 130° C. in air for 20 minutes, then soaked in 1.5% liquid detergent for 15 minutes at ambient temperature, and then rinsed thoroughly with water. […] An iodometric/thiosulfate titration indicated a chlorine loading on the cotton material of about 0.42%.
Finally, a wash test was performed on swatches of cotton containing the monomer 3-triethoxysilylpropyl-5,5-dimethylhydantoin coating and the polysiloxane coating, each chlorinated and unchlorinated, for comparison purposes. Two treatment baths were prepared, one containing an 8% solution of 3-triethoxysilylpropyl-5,5-dimethylhydantoin in a 50% solution of ethanol in water, the other containing an 8% solution of siloxane polymer prepared as described above in a 66.7% solution of ethanol in water. Identical cotton swatches were soaked in the two baths for 2.5 minutes at ambient temperature, cured in air at 130° C. for 20 minutes, soaked in 1.5% liquid detergent at ambient temperature for 15 minutes, rinsed thoroughly with water, and dried in air at 50° C. for 30 minutes. Then one-half of the swatches of each type were chlorinated by soaking them in 5% CLOROX at ambient temperature for 45 minutes. These chlorinated samples were rinsed thoroughly with water and dried in air at 50° C. for 30 minutes to remove all occluded free chlorine. Iodometric/thiosulfate titrations were performed on representative samples to determine initial chlorine loadings. The average chlorine loading for the silane monomer-coated samples was 0.61%; for the siloxane polymer-coated samples, the average chlorine loading was 0.40%. Then all types of coated swatches were subjected to laundry washing cycles using AATCC Test Method 61 (Test 2A Procedure). Samples were evaluated after 5, 10, and 50 washing cycles for retention of the coatings. Those samples not chlorinated before washing were chlorinated by the procedure described above in order to assess how much chlorine could be loaded after variable numbers of washing cycles. Those chlorinated before washing were divided into two groups with half being assessed for chlorine loading without rechlorination, the other half being rechlorinated and then assessed for chlorine loading. Three observations are clearly evident from the data in Table 3. First, both the silane and the siloxane coatings are partially lost upon successive washings. Second, prechlorination reduces the rate of loss, probably due to increasing the hydrophobicity of the surface, thus reducing the rate of hydrolysis loss of the siloxane coatings. Third, the siloxane coating, which is not chlorinated to as high a level as the silane one upon initial chlorination, is lost at a slower rate than is the silane coating. For all of the coatings, at least partial biocidal efficacy would be regenerated upon rechlorination after 50 washing cycles. […]

## CCO[Si](CCCN1C(=O)NC(C)(C)C1=O)(OCC)OCC [3-triethoxysilylpropyl-5,5-dimethylhydantoin]
S. aureus (ATCC 6538)
  log reduction of S. aureus: > 5.7 logs
[1]
  log reduction of E. coli: > 5.9 logs
[2]; cotton not treated in presence of KSCN, after 50 days in plastic bags at ambient temperature
  average chlorine loading: 0.540%
[2]; cotton not treated in presence of KSCN, start of dry storage
  average chlorine loading: 0.620%
[2]; cotton treated in presence of KSCN, after 50 days in plastic bags at ambient temperature
  average chlorine loading: 0.680%
[2]; cotton treated in presence of KSCN, start of dry storage
  average chlorine loading: 0.776%
[3]; PVC (Example 12)
  chlorine on hard surface: 4.1 μg per cm^2
[3]; cotton, 8% treatment bath, cured 130° C. 20 min, 5% CLOROX 45 minutes
  average initial chlorine loading before washing: 0.61%
[3]; cotton, KSCN in treatment bath
  average chlorine loading on the swatches: 0.61±0.14%
[3]; cotton
  chlorine content: approximately 4000 ppm Cl^+
[3]; cotton, without KSCN
  average chlorine loading on the swatches: 0.49±0.07%
[3]; marble tile
  chlorine bound to hard surface: 6.9 μg Cl^+ per square cm
[3]; marble tiles (Example 12)
  chlorine on hard surface: 6.9 μg per cm^2
[3]; porcelain tile
  chlorine bound to hard surface: 3.3 μg Cl^+ per square cm
[3]; rayon fabrics (Example 12)
  chlorine concentration on soft surface: 4000 ppm
[3]; sponge slabs
  chlorine content: 1000-2000 ppm
[3]; synthetic fibers (Example 12)
  chlorine concentration on soft surface: approximately 800 ppm
